# Like-named read-outs stand apart in the source and are kept apart here.
# Legend:
# [1] = Rifaximin systemic exposure/pharmacokinetics in healthy subjects, IBS subjects and liver impaired subjects; type: in vivo, human; conditions: for AUC / Cmax / half-life / Tmax / AUC(0-inf): human, plasma; for Tmax: read-out: Tmax, Median (range); for AUC(0-inf): po, single 550 mg oral dose, read-out: Mean AUC0-∞
# Method: Subjects with non-c-IBS had mean AUCtau values following a single dose and multiple TID doses of 9.69 ng·h/mL and 16.0 ng·h/mL, respectively, reflecting an accumulation ratio (Rc; multiple-dose AUCtau/single-dose AUCtau) of […]. In subjects with liver impairment, systemic exposure is higher than that observed in healthy subjects or subjects with non-constipation irritable bowel syndrome, but low nonetheless.
# Pharmacokinetic parameters were measured after a single dose and multiple doses (14 days).
# non-constipation IBS = assay: Combined first and second studies (TARGET 1 and 2): pooled efficacy, sustained response and recurrence; type: in vivo, human; set-up: Responders: abdominal pain reduction of 2 point in median / Responders: abdominal pain reduction of 3 point in median / Responders: abdominal pain reduction of 1 point in weekly median / Responders: abdominal pain reduction of 1 point in weekly mean / Responders: abdominal pain reduction of 2 point in mean: concentration or dose not given beside the values
# Method: A measure of efficacy is based on subjects' answers to the Weekly Subject Global Assessment (SGA) questions over the study duration in relation to their IBS symptoms.
# An evaluation of the enrolled subjects was carried out after the Primary Evaluation Period in the study described in Examples 5-7. […] Subjects with no recurrence are defined as having a stool consistency score of less than 4, abdominal pain reduced by at least 30 percent or both.
# [2] = Combined, at least 2 weeks during PEP
# [3] = Rolling 2-5 Weeks, Rifaximin (N = 624), n (%)
# [4] = Rolling 3-6 Weeks, Rifaximin (N = 624), n (%)
# [5] = Rolling 4-7 Weeks, Rifaximin (N = 624), n (%)
# [6] = Rolling 4 Weeks: 4-7 Weeks, N = 624
smiles,measurement,setting,value
"CO[C@H]1/C=C/O[C@@]2(C)Oc3c(C)c(O)c4c(O)c(c5c(nc6cc(C)ccn65)c4c3C2=O)NC(=O)/C(C)=C\C=C\[C@H](C)[C@H](O)[C@@H](C)[C@@H](O)[C@@H](C)[C@H](OC(C)=O)[C@@H]1C [Rifaximin, (2S,16Z,18E,20S,21S,22R,23R,24R,25S,26S,27S,28E)-5,6,21,23,25 Pentahydroxy-27-methoxy-2,4,11,16,20,22,24,26-octamethyl-2,7-(epoxypentadeca-(1,11,13)trienimino) benzofuro (4,5-e) pyrido(1,2-a) benzimidazole-1,15(2H)-dione,25-acetate]",AUC,"[1]; 550 mg, 550 mg BID repeat dosing, Child Pugh B, read-out: Mean steady-state AUCtau",161 ng·h/mL
same,AUC,"[1]; 550 mg, 550 mg BID repeat dosing, Child-Pugh A, read-out: Mean steady-state AUCtau",118 ng·h/mL
same,AUC,"[1]; 550 mg, 550 mg BID repeat dosing, Child-Pugh C, read-out: Mean steady-state AUCtau",246 ng·h/mL
same,AUC,"[1]; 550 mg, multiple-dose TID, healthy subjects, read-out: Mean AUCtau, steady-state",9.3 ng·h/mL
same,AUC,"[1]; 550 mg, subjects with non-c-IBS, multiple TID doses, read-out: Mean AUCtau",16 ng·h/mL
same,AUC,"[1]; 550 mg, subjects with non-c-IBS, single dose, read-out: Mean AUCtau",9.69 ng·h/mL
same,AUC,"[1]; multiple-dose BID, healthy subjects, read-out: Mean AUCtau, steady-state",12.3 ng·h/mL
same,AUC,"[1]; oral, 550 mg, 550 mg BID, Child-Pugh C, read-out: Mean steady-state AUCtau",257 ng·h/mL
same,Cmax,"[1]; oral, 550 mg, 550 mg BID, Child-Pugh C, read-out: Mean steady-state Cmax",39.7 ng/mL
same,half-life,"[1]; oral, 550 mg, Child-Pugh C subjects, read-out: Mean half-life (converted)",6.35 h
same,AUC,"[1]; oral, 550 mg, Healthy Subjects, 550 mg Multiple-Dose TID (Day 14), N = 14, read-out: AUCtau, mean (SD)",9.3 ng·h/mL
same,Cmax,"[1]; oral, 550 mg, Healthy Subjects, 550 mg Multiple-Dose TID (Day 14), N = 14, read-out: Cmax, mean (SD)",2.39 ng/mL
same,half-life,"[1]; oral, 550 mg, Healthy Subjects, 550 mg Multiple-Dose TID (Day 14), N = 14, read-out: Half-life, harmonic mean (pseudo SD) (converted)",5.63 h
same,Tmax,"[1]; oral, 550 mg, Healthy Subjects, 550 mg Multiple-Dose TID (Day 14), N = 14",1 h
same,AUC,"[1]; oral, 550 mg, Healthy Subjects, 550 mg Single-Dose (Day 1), N = 12, read-out: AUCtau, mean (SD)",10.4 ng·h/mL
same,Cmax,"[1]; oral, 550 mg, Healthy Subjects, 550 mg Single-Dose (Day 1), N = 12, read-out: Cmax, mean (SD)",4.04 ng/mL
same,half-life,"[1]; oral, 550 mg, Healthy Subjects, 550 mg Single-Dose (Day 1), N = 12, read-out: Half-life, harmonic mean (pseudo SD) (converted)",1.83 h
same,Tmax,"[1]; oral, 550 mg, Healthy Subjects, 550 mg Single-Dose (Day 1), N = 12",0.75 h
same,AUC,"[1]; oral, 550 mg, IBS-D Patients, 550 mg Multiple-Dose TID (Day 14), N = 24, read-out: AUCtau, mean (SD)",16 ng·h/mL
same,Cmax,"[1]; oral, 550 mg, IBS-D Patients, 550 mg Multiple-Dose TID (Day 14), N = 24, read-out: Cmax, mean (SD)",4.22 ng/mL
same,half-life,"[1]; oral, 550 mg, IBS-D Patients, 550 mg Multiple-Dose TID (Day 14), N = 24, read-out: Half-life, harmonic mean (pseudo SD) (converted)",6.08 h
same,Tmax,"[1]; oral, 550 mg, IBS-D Patients, 550 mg Multiple-Dose TID (Day 14), N = 24",1 h
same,AUC,"[1]; oral, 550 mg, IBS-D Patients, 550 mg Single-Dose (Day 1), N = 24, read-out: AUCtau, mean (SD)",9.69 ng·h/mL
same,Cmax,"[1]; oral, 550 mg, IBS-D Patients, 550 mg Single-Dose (Day 1), N = 24, read-out: Cmax, mean (SD)",3.49 ng/mL
same,half-life,"[1]; oral, 550 mg, IBS-D Patients, 550 mg Single-Dose (Day 1), N = 24, read-out: Half-life, harmonic mean (pseudo SD) (converted)",3.14 h
same,Tmax,"[1]; oral, 550 mg, IBS-D Patients, 550 mg Single-Dose (Day 1), N = 24",0.775 h
same,Cmax,"[1]; oral, 550 mg, single 550-mg dose, fasted healthy subjects, read-out: Cmax",4.1 ng/mL
same,AUC(0-inf),"[1]; 550 mg, fasted healthy subjects",11.1 ng·h/mL
same,AUC(0-inf),"[1]; 550 mg, fed healthy subjects",22.5 ng·h/mL
same,Systemic absorption,[1]; regardless of food intake or presence of GI disease,< 0.4%
same,IBS symptom of bloating: adequate relief at least 2 out of 4 weeks during weeks 3 through 6 (weekly question),non-constipation IBS; Combined,40%
same,Global IBS symptoms: adequate relief at least 2 out of 4 weeks during weeks 3 through 6 (weekly question),"non-constipation IBS; Combined, 550 mg TID 14 d",32% vs 41%
same,Responders: abdominal pain reduction of 1 point in weekly mean,non-constipation IBS; [2],52%
same,Responders: abdominal pain reduction of 1 point in weekly median,non-constipation IBS; [2],63%
same,Responders: abdominal pain reduction of 2 point in mean,non-constipation IBS; [2],25%
same,Responders: abdominal pain reduction of 2 point in median,non-constipation IBS; [2],39%
same,Responders: abdominal pain reduction of 3 point in mean,non-constipation IBS; [2],6% vs 7%
same,Responders: abdominal pain reduction of 3 point in median,non-constipation IBS; [2],21%
same,Responders: daily abdominal pain < 2 for at least 50% of days in a week,non-constipation IBS; [2],39%
same,Responders: overall reduction of mean weekly abdominal pain by >= 25%,non-constipation IBS; [2],57%
same,Responders: overall reduction of mean weekly abdominal pain by >= 50%,non-constipation IBS; [2],35%
same,Responders: overall reduction of mean weekly abdominal pain by >= 75%,non-constipation IBS; [2],14%
same,Responders: overall reduction of median weekly abdominal pain by >= 25%,non-constipation IBS; [2],62%
same,Responders: overall reduction of median weekly abdominal pain by >= 50%,non-constipation IBS; [2],44%
same,Responders: overall reduction of median weekly abdominal pain by >= 75%,non-constipation IBS; [2],21%
same,"Sustained Durable Response (No Recurrence), Abdominal Pain & Stool Consistency: % of subjects",non-constipation IBS; N = 624,(33.2%)
same,"Sustained Durable Response (No Recurrence), Abdominal Pain & Stool Consistency: number of subjects",non-constipation IBS; N = 624,207
same,"Sustained Durable Response (No Recurrence), Abdominal Pain: % of subjects",non-constipation IBS; N = 624,(35.7%)
same,"Sustained Durable Response (No Recurrence), Abdominal Pain: number of subjects",non-constipation IBS; N = 624,223
same,"Sustained Durable Response (No Recurrence), Stool Consistency: % of subjects",non-constipation IBS; N = 624,(68.9%)
same,"Sustained Durable Response (No Recurrence), Stool Consistency: number of subjects",non-constipation IBS; N = 624,430
same,"Abdominal Pain or Stool Consistency, Sustained Durable Response","non-constipation IBS; Rifaximin (N = 624), n (%)",180 (28.8%)
same,"Abdominal Pain or Stool Consistency, No Recurrence",non-constipation IBS; [3],286 (45.8%)
same,"Abdominal Pain or Stool Consistency, Recurrence",non-constipation IBS; [3],12 (1.9%)
same,"Abdominal Pain or Stool Consistency, No Recurrence",non-constipation IBS; [4],274 (43.9%)
same,"Abdominal Pain or Stool Consistency, Recurrence",non-constipation IBS; [4],23 (3.7%)
same,"Abdominal Pain or Stool Consistency, No Recurrence",non-constipation IBS; [5],251 (40.2%)
same,"Abdominal Pain or Stool Consistency, Recurrence",non-constipation IBS; [5],17 (2.7%)
same,"No Recurrence, Abdominal Pain & Stool Consistency: % of subjects",non-constipation IBS; [6],(48.2%)
same,"No Recurrence, Abdominal Pain & Stool Consistency: number of subjects",non-constipation IBS; [6],301
same,"No Recurrence, Abdominal Pain: % of subjects",non-constipation IBS; [6],(51.9%)
same,"No Recurrence, Abdominal Pain: number of subjects",non-constipation IBS; [6],324
same,"No Recurrence, Stool Consistency: % of subjects",non-constipation IBS; [6],(78.8%)
same,"No Recurrence, Stool Consistency: number of subjects",non-constipation IBS; [6],492
same,"Recurrence, Abdominal Pain & Stool Consistency: % of subjects",non-constipation IBS; [6],3.7%
same,"Recurrence, Abdominal Pain & Stool Consistency: number of subjects",non-constipation IBS; [6],23
same,"Recurrence, Abdominal Pain: % of subjects",non-constipation IBS; [6],3.8%
same,"Recurrence, Abdominal Pain: number of subjects",non-constipation IBS; [6],24
same,"Recurrence, Stool Consistency: % of subjects",non-constipation IBS; [6],1.3%
same,"Recurrence, Stool Consistency: number of subjects",non-constipation IBS; [6],8
same,"No Recurrence, Abdominal Pain & Stool Consistency: % of subjects","non-constipation IBS; Rolling 4 Weeks: 5-8 Weeks, N = 624",(44.6%)

# From patent publication US10610522B2, “Methods for retreating irritable bowel syndrome (IBS)” (Salix Pharmaceuticals, Inc., priority 2014, dated 2020)
